pIC50: −log10 of the molar value.
Target: ROMK (Kir1.1) channel (Homo sapiens (Human), UniProt P48048)
Experiment: Thallium Flux Assay
Format: cell-based
Procedure: A Thallium Flux Assay was performed on each of the final product compounds of the Examples. This assay has been described previously; see, e.g., PCT Published Application WO 2013/062900.

ROMK (Kir1.1) channel, sequence (P48048 whole entry): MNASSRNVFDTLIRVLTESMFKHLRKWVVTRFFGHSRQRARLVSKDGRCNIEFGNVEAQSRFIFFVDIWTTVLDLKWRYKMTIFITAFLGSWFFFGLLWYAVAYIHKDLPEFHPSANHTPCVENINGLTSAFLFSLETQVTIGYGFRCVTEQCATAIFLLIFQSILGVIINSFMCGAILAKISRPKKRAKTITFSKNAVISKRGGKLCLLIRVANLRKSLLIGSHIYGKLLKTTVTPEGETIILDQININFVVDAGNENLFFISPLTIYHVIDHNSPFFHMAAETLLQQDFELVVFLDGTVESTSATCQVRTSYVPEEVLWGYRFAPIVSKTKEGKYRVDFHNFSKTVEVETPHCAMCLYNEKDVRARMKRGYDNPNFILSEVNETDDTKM

| SMILES | pIC50 |
| --- | --- |
| CC1=C(N2CC[C@]3(CC[C@H](NC[C@H](O)c4ccc5c(c4C)COC5=O)CC3)C2=O)COC1=O [Example 79, (5S,8s)-8-{[(2R)-2-hydroxy-2-(4-methyl-1-oxo-1,3-dihydro-2-benzofuran-5-yl)ethyl]amino}-2-(4-methyl-5-oxo-2,5-dihydrofuran-3-yl)-2-azaspiro[4.5]decan-1-one] | 6.55 |
| CCN(Cc1ccc(-n2cnnn2)nc1)[C@H]1CC[C@]2(CCN(C3=C(C)C(=O)OC3)C2=O)CC1 [Example 134] | 6.33 |
| CC1=C(N2CC[C@]3(CC[C@@H](N[C@H](C)c4cnc(-n5cnnn5)cn4)CC3)C2=O)COC1=O [Example 24, (5R,8r)-2-(4-methyl-5-oxo-2,5-dihydrofuran-3-yl)-8-({(1R)-1-[5-(1H-tetrazol-1-yl)pyrazin-2-yl]ethyl}amino)-2-azaspiro[4.5]decan-1-one] | 6.92 |
| CC1=C(N2CC[C@]3(CC[C@@](C)(N(C)Cc4cnc(-n5cnnn5)cn4)CC3)C2=O)COC1=O [Example 129] | 7.35 |
| CC1=C(N2CC[C@]3(CC[C@@H](N[C@@H](C)c4ccc5c(c4)Cn4nnnc4-5)CC3)C2=O)COC1=O [Example 31, (5S,8r)-2-(4-methyl-5-oxo-2,5-dihydrofuran-3-yl)-8-{[(1S)-1-(5H-tetrazolo[5,1-a]isoindol-7-yl)ethyl]amino}-2-azaspiro[4.5]decan-1-one] | 6.59 |
| CN(Cc1cnc(-n2cnnn2)cn1)C1CCC2(CC1)CCN(C1=CC(=O)OC1)C2=O (stereo not shown) [Example 128] | 7.03 |
| CC1=C(N2CC[C@]3(CC[C@@H](N(C)Cc4cnc(-n5cnnn5)cn4)CC3)C2=O)COC1=O [Example 92] | 7.54 |
| CC1=C(N2CC[C@]3(CC[C@H](N(C)Cc4ccc5c(c4)Cn4nnnc4-5)CC3)C2=O)COC1=O [Example 89] | 6.02 |
| CC1=C(N2CC[C@]3(CC[C@H](N(C)Cc4ccc(-n5cnnn5)cn4)CC3)C2=O)COC1=O [Example 87] | 6.26 |
| CC1=C(N2CC[C@]3(CC[C@@H](NCc4ccc5c(c4)Cn4nnnc4-5)CC3)C2=O)COC1=O [Example 11, (5r,8r)-2-(4-methyl-5-oxo-2,5-dihydrofuran-3-yl)-8-[(5H-tetrazolo[5,1-a]isoindol-7-ylmethyl)amino]-2-azaspiro[4.5]decan-1-one] | 6.96 |
| CC1=C(N2CC[C@]3(CC[C@H](N(C)Cc4ccc(-n5ncnn5)nn4)CC3)C2=O)COC1=O [Example 114] | 6.37 |

Now those with a higher pIC50, led by results:

| pIC50 | SMILES |
| --- | --- |
| 7.62 | CC1=C(N2CC[C@]3(CC[C@H](NCc4ccc(-n5cnnn5)cn4)CC3)C2=O)COC1=O [Example 7A, (5s,8s)-2-(4-methyl-5-oxo-2,5-dihydrofuran-3-yl)-8-({[5-(1H-tetrazol-1-yl)pyridin-2-yl]methyl}amino)-2-azaspiro[4.5]decan-1-one] |
| 7.68 | CC1=C(N2CC[C@]3(CC[C@@H](N(C)Cc4ccc5c(ccc6nnnn65)c4)CC3)C2=O)COC1=O [Example 96] |
| 7.72 | CC1=C(N2CC[C@]3(CC[C@@H](N(C)Cc4ccc(-n5cnnn5)nn4)CC3)C2=O)COC1=O [Example 80, (5r,8r)-2-(4-methyl-5-oxo-2,5-dihydrofuran-3-yl)-8-(methyl{[6-(1H-tetrazol-1-yl)pyridazin-3-yl]methyl}amino)-2-azaspiro[4.5]decan-1-one] |
| 7.82 | CC1=C(N2C(=O)[C@]3(CC[C@@H](NCc4ccc5c(c4)Cn4nnnc4-5)CC3)C[C@H]2C)COC1=O [Example 55, (3R,5s,8S)-8-(((5H-tetrazolo[5,1-a]isoindol-7-yl)methyl)amino)-3-methyl-2-(4-methyl-5-oxo-2,5-dihydrofuran-3-yl)-2-azaspiro[4.5]decan-1-one] |
| 7.82 | CC1=C(N2CC[C@]3(CC[C@@](C)(NCc4cnc(-n5cnnn5)cn4)CC3)C2=O)COC1=O [Example 69, (5r,8r)-8-(((5-(1H-tetrazol-1-yl)pyrazin-2-yl)methyl)amino)-8-methyl-2-(4-methyl-5-oxo-2,5-dihydrofuran-3-yl)-2-azaspiro[4.5]decan-1-one] |

Source: patent publication US9718808B2, “Inhibitors of the renal outer medullary potassium channel” (Merck Sharp & Dohme Corp., priority 2014, dated 2017)
